Structures can show the parent of a compound that is named as a salt. Where two headings read alike, the source gives them in different places.
Columns and labels:
[1] = biological target: T1, dopamine transport (DAT) sites (Rattus norvegicus, UniProt P23977); test: DAT binding, displacement of [125I]RTI-55 in rat striatum membranes
T1 construct: from tissue; host or cells: Sprague-Dawley rat striatum membranes
Method: Frozen brains from Sprague-Dawley rats are obtained commercially and striata are dissected on ice. […] Tubes are incubated for 50 min at 25° C., and the reaction is terminated by rapid filtration with 3-5 ml of cold Tris buffer through Whatman GF/B glass fiber filters pre-soaked in Tris buffer containing 0.1% BSA for at least 1 h. Non-specific binding is determined in the presence of 1 μMWF-23. […]

Log-P (Table 1) = format: physicochemical
[2] = biological target: T2, norepinephrine transporters (NET) (Rattus norvegicus, UniProt Q9WTR4); test: NET binding, displacement of [3H]nisoxetine in rat brain membranes
T2 construct: Whole rat brains (minus cerebellum) are homogenized; from tissue; host or cells: rat whole brain minus cerebellum, membranes
T2 sequence (Q9WTR4 1-597): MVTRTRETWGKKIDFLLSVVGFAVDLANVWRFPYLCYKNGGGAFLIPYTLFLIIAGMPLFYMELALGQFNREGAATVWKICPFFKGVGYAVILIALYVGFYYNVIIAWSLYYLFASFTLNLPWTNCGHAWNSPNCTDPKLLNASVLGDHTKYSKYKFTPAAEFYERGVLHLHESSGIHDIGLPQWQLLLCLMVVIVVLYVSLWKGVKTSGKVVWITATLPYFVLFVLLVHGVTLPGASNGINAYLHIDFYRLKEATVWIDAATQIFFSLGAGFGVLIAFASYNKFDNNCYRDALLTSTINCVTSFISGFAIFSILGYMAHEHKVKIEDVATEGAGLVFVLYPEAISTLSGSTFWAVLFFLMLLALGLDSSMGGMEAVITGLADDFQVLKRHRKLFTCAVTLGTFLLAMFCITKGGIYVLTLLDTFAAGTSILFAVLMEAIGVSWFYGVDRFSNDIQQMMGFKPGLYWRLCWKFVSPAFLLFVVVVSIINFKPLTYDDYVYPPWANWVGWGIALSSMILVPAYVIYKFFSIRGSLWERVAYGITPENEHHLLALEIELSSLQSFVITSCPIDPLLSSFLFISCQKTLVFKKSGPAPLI
Method: (§1) Binding of analogs at norepinephrine transporters (NET) was determined by displacement of [^3H]nisoxetine binding. […] The membranes are resuspended in nisoxetine assay buffer (300 mM NaCl, 5 mM KCl, 50 mM Tris-HCl, pH 7.4) and centrifuged again before final resuspension in volumes of buffer. Assay tubes contain 750 μl of brain membranes, [^3H]nisoxetine (0.7 nM) together with unlabeled drugs dissolved in nisoxetine assay buffer to a final volume of 1 ml. Tubes are incubated for 40 min at 25° C., and the reaction is terminated by rapid filtration with 3×4 mL of cold Tris buffer through Whatman GF/B glass fiber filters which have been pre-soaked in Tris buffer containing 0.1% BSA for at least 1 h. Non-specific binding is determined in the presence of 1 μM desipramine. In [^3H]citalopram and [^3H]nisoxetine binding assays, radioactivity is determined by liquid scintillation spectrophotometry (efficiency: 50%) after eluting filters overnight in 5 mL of Ecolite scintillation fluid (ICN). IC50 values are calculated from displacement curves using 7-10 concentrations of unlabeled analogs. […] For [^3H]paroxetine and [^3H]nisoxetine binding assays, Ki values are calculated using the Cheng-Prusoff equation.

[3] = biological target: T3, 5-HT transport (SERT) sites (Rattus norvegicus, UniProt P31652); test: SERT binding, displacement of [3H]citalopram in rat frontal cortex membranes
T3 construct: Tissue is obtained from frozen rat brains as described above; from tissue; host or cells: rat frontal cortex membranes (frozen rat brains)
T3 sequence (P31652 whole entry): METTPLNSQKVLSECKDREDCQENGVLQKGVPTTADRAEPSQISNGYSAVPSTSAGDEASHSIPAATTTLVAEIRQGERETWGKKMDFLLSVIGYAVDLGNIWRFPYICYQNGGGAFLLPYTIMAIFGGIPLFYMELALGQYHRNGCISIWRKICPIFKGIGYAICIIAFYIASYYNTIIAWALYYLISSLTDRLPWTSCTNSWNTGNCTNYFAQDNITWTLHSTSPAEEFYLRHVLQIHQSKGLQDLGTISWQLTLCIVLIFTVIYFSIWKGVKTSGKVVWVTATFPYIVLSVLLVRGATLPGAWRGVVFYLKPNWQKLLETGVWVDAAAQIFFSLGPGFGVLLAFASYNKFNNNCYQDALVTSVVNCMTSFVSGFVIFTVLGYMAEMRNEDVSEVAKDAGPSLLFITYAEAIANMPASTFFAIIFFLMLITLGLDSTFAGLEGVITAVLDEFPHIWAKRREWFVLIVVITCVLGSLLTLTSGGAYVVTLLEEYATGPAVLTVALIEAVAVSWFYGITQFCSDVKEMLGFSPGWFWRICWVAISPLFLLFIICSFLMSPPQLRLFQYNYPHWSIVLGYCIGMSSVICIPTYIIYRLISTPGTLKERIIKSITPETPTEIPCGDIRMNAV
Method: Affinities of analogs at 5-HT transport (SERT) sites are determined by displacement of [^3H] citalopram binding in membranes from rat frontal cortex. […] Assay tubes contain 50 mg (original wet weight) of membranes, 0.4 nM [^3H]citalopram, and various concentrations of unlabeled drugs dissolved in citalopram assay buffer in a final volume of 2 ml. Tubes are incubated for 60 min at 25° C., and the reaction is terminated by rapid filtration with 3×4 mL of cold Tris buffer through Whatman GF/B glass fiber filters pre-soaked in Tris buffer containing 0.1% BSA for at least 1 h. Non-specific binding is determined in the presence of 10 μM fluoxetine.
as §1

SNL rats = test: Mechanical allodynia (paw withdrawal threshold) in L5/L6 spinal nerve ligation (SNL) model of neuropathic pain; format: in vivo, rat; details: for anti-allodynic effect (in words): i.t., clonidine 10 μg, HD-283 30 μg, HD-286 and HD-288 up to 3 μg
Description: A 3 cm incision was made in the back using the iliac crests as a midpoint. An incision was then made in the underlying muscle, which was then separated by both sharp and blunt dissection to expose the left transverse process of the fifth lumbar vertebra. The transverse process was removed using bone microrongeurs, and the fifth lumbar nerve was exteriorized from underneath the spinal column using a small metal hook and ligated using 4.0 silk suture with sufficient pressure to cause the nerve to bulge on each side of the ligature. The sixth lumbar nerve was exteriorized from underneath the iliac bone at the sciatic notch and ligated in a similar manner. All muscle layers were sutured using 4.0 chromic gut, the skin was sutured using 4.0 nylon suture.
The animal is placed in a stereotaxic frame to immobilize the head under pentobarbital anesthesia. The animal's body is lifted and supported to render the spinal column straight and level and the animal's head is placed downward such the top of the skull forms a 90° angle with the spinal column. A small incision is placed at the back of the neck and the underlying muscles are blunt dissected to reveal the atlanto-occipital membrane. A small incision is placed in the atlanto-occipital membrane through which a 32 ga polyethylene catheter is inserted that is 8 cm in length. The catheter is anchored to the neck muscles with 4.0 silk suture and the exterior wounds are closed with 4.0 nylon suture.
All compounds were dissolved in 0.9% (wt/vol) saline, pH 7.4 and administered through the intrathecal catheter in a volume of 5 μl, followed by 15 μl of 0.9% saline to flush the catheter.
Paw withdrawal threshold was determined before and at selected time points following intrathecal drug administration using calibrated von Frey filaments. The animals are placed in elevated Plexiglas chambers with wire mesh floors and acclimated for a minimum of 30 minutes. Beginning with a filament calibrated to bend with a force of 2 g of pressure, the filament is applied to the plantar surface of the left hindpaw with sufficient force to bend slightly and left in place for 8 seconds or until the animal withdraws it's paw from the filament. In the absence of a paw withdrawal, the next highest calibrated filament is applied in a similar manner. In the presence of a paw withdrawal, the next lowest calibrated filament is applied. This up-down method continues until 4 responses are recorded after an initial positive response. The paw withdrawal threshold is calculated using Dixon non-parametric statistics.
The potency and efficacy of novel SNRT analogs in reversing mechanical hypersensitivity were determined in the L5/L6 spinal nerve ligation (SNL) model of neuropathic pain in rats. Compounds were administered intrathecal (i.t.) and the effect on paw withdrawal threshold was assessed at various time points following treatment.

[4] = [125I]RTI-55 displacement, rat striatum membranes, reported as IC50, read-out: DAT
[5] = [3H]nisoxetine displacement, rat brain membranes, Ki by Cheng-Prusoff, read-out: NET
[6] = [3H]citalopram displacement, rat frontal cortex membranes, Ki by Cheng-Prusoff, read-out: SERT

T1 sequence (P23977 whole entry): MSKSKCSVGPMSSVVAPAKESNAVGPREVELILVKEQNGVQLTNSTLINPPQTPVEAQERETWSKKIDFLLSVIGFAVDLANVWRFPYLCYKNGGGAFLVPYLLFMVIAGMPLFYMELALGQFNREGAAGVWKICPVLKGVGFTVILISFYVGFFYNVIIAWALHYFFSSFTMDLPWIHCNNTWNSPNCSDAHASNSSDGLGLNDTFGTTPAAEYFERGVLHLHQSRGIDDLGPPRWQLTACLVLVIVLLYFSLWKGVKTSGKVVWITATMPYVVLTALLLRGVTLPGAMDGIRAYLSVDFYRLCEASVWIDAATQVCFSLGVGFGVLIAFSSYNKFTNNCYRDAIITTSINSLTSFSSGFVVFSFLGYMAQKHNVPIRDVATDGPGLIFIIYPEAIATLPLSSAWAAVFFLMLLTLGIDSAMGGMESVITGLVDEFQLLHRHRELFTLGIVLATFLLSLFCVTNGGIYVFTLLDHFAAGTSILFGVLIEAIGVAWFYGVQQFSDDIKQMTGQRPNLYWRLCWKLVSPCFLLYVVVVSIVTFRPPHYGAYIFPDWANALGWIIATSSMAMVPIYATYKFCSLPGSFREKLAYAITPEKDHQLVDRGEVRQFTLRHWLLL

Row | Compound | IC50 [1, 4] | Log-P (Log-P (Table 1)) | Ki [2, 5] | Ki [3, 6] | also measured
1 | CNCC1CC1(C(=O)OC)c1ccc2ccccc2c1 (racemic) [HD-287, Methyl 2-((methylamino)methyl)-1-(naphthalen-2-yl)cyclopropanecarboxylate hydrochloride] |  | 2.82 | 3.49 ± 0.64 nM |  | IC50 [1]: 177 ± 44 nM; Ki [3]: 6.58 ± 0.71 nM
2 | Clc1cccc(Cl)c1N=C1NCCN1 [Clonidine, clonidine, reference compound] |  |  |  |  | anti-allodynic effect (in words) (SNL rats): reversed mechanical allodynia
3 | CCN(CC)C(=O)C1(c2ccccc2)CC1CN (centres unmarked) [HD-283, Milnacipran, reference compound] |  | 1.91 |  |  | anti-allodynic effect (in words) (SNL rats): reversed mechanical allodynia; IC50 [1]: 1970 ± 230 nM; Ki [2]: 23.8 ± 1.7 nM; transporter selectivity (in words) ([2]; NET versus SERT binding): non-selective; Ki [3]: 35.1 ± 4.4 nM
4 | CNC[C@H]1C[C@@]1(C(=O)OC)c1ccc(Cl)c(Cl)c1 [HD-326, (1S,2S)-methyl 1-(3,4-dichlorophenyl)-2-((methylamino)methyl)cyclopropanecarboxylate] |  | 2.95 | 8.11 ± 0.8 nM | 40.5 ± 4.3 nM | 
5 | CNC[C@@H]1C[C@]1(C(=O)OC)c1ccc(Cl)c(Cl)c1 [HD-327, (1R,2R)-methyl 1-(3,4-dichlorophenyl)-2-((methylamino)methyl)cyclopropanecarboxylate] |  | 2.95 | 0.31 ± 0.01 nM | 2.42 ± 0.31 nM | 
6 | CNC[C@H]1C[C@@]1(C(=O)OC)c1ccc(Br)c(Br)c1 [HD-328, (1S,2S)-methyl 1-(3,4-dibromophenyl)-2-((methylamino)methyl)cyclopropanecarboxylate] | 87.9 ± 9.5 nM | 3.17 | 4.57 ± 0.66 nM | 18.4 ± 2.5 nM | 
7 | CNC[C@@H]1C[C@]1(C(=O)OC)c1ccc(Br)c(Br)c1 [HD-329, (1R,2R)-methyl 1-(3,4-dibromophenyl)-2-((methylamino)methyl)cyclopropanecarboxylate] | 35.2 ± 4.6 nM | 3.17 | 0.62 ± 0.12 nM | 1.71 ± 0.05 nM | 
8 | CNC[C@H]1C[C@@]1(C(=O)OC)c1ccc2ccccc2c1 [HD-330, (1S,2S)-methyl 2-((methylamino)methyl)-1-(naphthalen-2-yl)cyclopropanecarboxylate] | 313 ± 55 nM | 2.82 | 16.4 ± 0.52 nM |  | Ki [3]: 27 ± 3.4 nM
9 | CNC[C@@H]1C[C@]1(C(=O)OC)c1ccc2ccccc2c1 [HD-331, (1R,2R)-methyl 2-((methylamino)methyl)-1-(naphthalen-2-yl)cyclopropanecarboxylate] | 320 ± 51 nM | 2.82 | 10.4 ± 0.89 nM |  | Ki [3]: 15 ± 2.8 nM
10 | CNC[C@H]1C[C@@]1(C(=O)OC)c1ccc(-c2ccccc2)cc1 [HD-332, (1S,2S)-methyl 1-([1,1′-biphenyl]-4-yl)-2-((methylamino)methyl)cyclopropanecarboxylate] |  | 3.54 | > 10000 nM | 79.8 ± 21 nM | 

Now from value to compound, other results behind:

Row | IC50 [1, 4] | Log-P (Log-P (Table 1)) | Ki [2, 5] | Ki [3, 6] | Compound | also measured
11 | 1780 ± 87 nM | 1.65 | 152 ± 65 nM | 157 ± 4.8 nM | CNCC1CC1(C(=O)OC)c1ccccc1 (racemic) [HD-284, Methyl 2-((methylamino)methyl)-1-phenylcyclopropanecarboxylate] | 
12 | 1460 ± 470 nM | 2.51 | 3.7 ± 1.4 nM | 210 ± 10 nM | CNCC1CC1(C(=O)OC)c1ccc(Br)cc1 (racemic) [HD-285, Methyl 1-(4-bromophenyl)-2-((methylamino)methyl)cyclopropanecarboxylate] | 
13 |  | 3.54 | 315 ± 100 nM | 4.85 ± 1 nM | CNCC1CC1(C(=O)OC)c1ccc(-c2ccccc2)cc1 (racemic) [HD-286, Methyl 1-([1,1′-biphenyl]-4-yl)-2-((methylamino)methyl)cyclopropanecarboxylate hydrochloride] | anti-allodynic effect (in words) (SNL rats): significantly lower efficacy
14 |  | 2.95 | 0.8 ± 0.02 nM | 5.6 ± 0.39 nM | CNCC1CC1(C(=O)OC)c1ccc(Cl)c(Cl)c1 (racemic) [HD-288, Methyl 1-(3,4-dichlorophenyl)-2-((methylamino)methyl)cyclopropanecarboxylate] | PWT after treatment (SNL rats; 3 μg i.t.): 24.9 ± 2.5 g; PWT before treatment (baseline) (SNL rats; before i.t. drug): 2.9 ± 0.4 g; anti-allodynic A50 (SNL rats; i.t. administration): 0.6 ± 0.3 µg; anti-allodynic effect (in words) (SNL rats): significantly greater than clonidine
15 | 1360 ± 198 nM | 1.31 | 8.62 ± 0.71 nM | 106 ± 21 nM | CNCC1CC1(C(=O)OC)c1ccc(OC)c(OC)c1 (racemic) [HD-289, Methyl 1-(3,4-dimethoxyphenyl)-2-((methylamino)methyl)cyclopropanecarboxylate hydrochloride] | 
16 | 1840 ± 350 nM | 2.36 | 289 ± 24 nM | 329 ± 54 nM | CNCC1CC1(C(=O)OC)c1ccccc1Cl (racemic) [HD-290, Methyl 1-(2-chlorophenyl)-2-((methylamino)methyl)cyclopropanecarboxylate] | 
17 | > 10000 nM | 2.51 | 44.9 ± 1 nM | 946 ± 71 nM | CNC[C@H]1C[C@@]1(C(=O)OC)c1ccc(Br)cc1 [HD-324, (1S,2S)-methyl 1-(4-bromophenyl)-2-((methylamino)methyl)cyclopropanecarboxylate] | 
18 | 333 ± 79 nM | 2.51 | 2.49 ± 0.07 nM | 47 ± 2.9 nM | CNC[C@@H]1C[C@]1(C(=O)OC)c1ccc(Br)cc1 [HD-325, (1R,2R)-methyl 1-(4-bromophenyl)-2-((methylamino)methyl)cyclopropanecarboxylate] | 
19 |  | 3.54 | 86.6 ± 19 nM | 2.69 ± 0.62 nM | CNC[C@@H]1C[C@]1(C(=O)OC)c1ccc(-c2ccccc2)cc1 [HD-333, (1R,2R)-methyl 1-([1,1′-biphenyl]-4-yl)-2-((methylamino)methyl)cyclopropanecarboxylate] | 

Reference: patent publication US10207984B2, “Cyclopropyl derivatives and methods of use” (Emory University, priority 2011, dated 2019)
